Patent US9023853B2, “Janus kinase 2 (JAK2) inhibitor for the treatment of lupus” (Cephalon, Inc., priority 2010, dated 2015)

Assays:
Format in all cases: in vivo, mouse
[1] = test system: CCL3/MIP-1α; experiment: Serum CCL3/MIP-1α in NZM mice
Protocol: For the processing of serum samples for cytokine analysis, frozen plasma at −80° C. was thawed on ice, vortexed, and centrifuged for 10 minutes to remove debris and aggregates. A total of 25-50 μL of serum was used for Luminex® assays following the manufacturer's instructions. Ten different mouse cytokines were measured using the mouse cytokine 10-plex bead kit (Invitrogen, Carlsbad, Calif., no. LMC0001). Briefly, filter plates (Millipore, Billerica, Mass., no. MAIPSWU10), were pre-wet with 200 μL of wash solution (kit component) and 25 μL of beads were added per well. […]
Age mated, female, NZM or NZW/LacJ, mice were matured for the study of lupus nephritis for a total of 7 months or 210 days at which time urine was collected for proteinuria detection. Mice with 0.5-1.0 mg/ml of urine protein as determined by an optical density-based total protein precipitation assay and cross-checked for 30-300 mg/dl of protein as determined by a stick assay were considered proteinuria positive and selected for study entry. […] End-stage lupus nephritis was evaluated by histopathology and scored by a board certified pathologist for the assessment of total renal damage in diseased animals using the scoring method described by Smith et al (Smith, Dong et al. 2007). […]

[2] = test system: C3; experiment: Serum complement C3 in MRL/lpr mice
Source text: MRL/lpr mice were first randomized, initial bleeds collected, and body weights recorded for baseline measurements (FIG. 1). All mice were individually ear tagged and were monitored throughout the entire experiment (e.g., “Group#-Cage letter-Mouse#”, so “3B5”=Group 3 (G3), cage B, mouse#5). Mice were age-matched and treatment started at 6-8 weeks of age. Cheek bleeds and urine collection continued weekly throughout the experiment. Mice were individually tracked for several parameters including cytokine and ANA levels, proteinuria, body mass, lymphomegaly, general health, and mortality. All parameters were evaluated bi-monthly except mortality which was monitored daily. All groups consisted of a minimum of at least 10-12 mice per group. Ex vivo experiments included flow cytometry analyses for plasma cells, serum complement C3 and ANA levels; urine protein and leukocytes, serum cytokine profiling, renal histo pathology, and determination of compound levels (pharmacokinetics (PK)) in the spleen, kidney and plasma. Mice were tracked on an individual basis. For all data, mice were grouped into populations and data graphed as mean±SEM. Bi-monthly observations and data collected were recorded for each group, except mortality which was performed daily. End-stage readouts were analyzed as described in the MATERIALS AND METHODS section (above) and in FIG. 1. […]

[3] = test system: MRL/lpr mice; experiment: Lymphomegaly, splenomegaly and spleen leukocyte counts in MRL/lpr lupus model; conditions: for total spleen leukocyte counts compared to vehicle: p<0.05; for mice without lymphomegaly: vehicle 0%
Protocol: Six week old lupus-prone, female, MRL/lpr (Jackson Labs, #000485) and non-lupus prone control MRL/MpJ (Jackson Labs, #000486) mice were obtained from Jackson Laboratories (Bar Harbor, Me.) at 6-weeks of age. Spontaneous SLE-prone NZBWF1/J (NZM) (catalog no. 100008) female mice and non-lupus prone (within time from of experiment) NZW/LacJ (catalog no. 001058) female mice were obtained from Jackson Laboratories (Bar Harbor, Me.) at 15-weeks of age. All mice were maintained on a […] light/dark cycle, with food and water available ad libitum. All experimental animal procedures were approved by and in accordance to the regulations of the Institutional Animal Care and Use Committee (IACUC) of Cephalon, Inc; approved IACUC protocol #03-040 and #03-03-041. […] Due to this impaired tolerance mechanism, a percentage of all T and B cells that enter the periphery have a high likelihood of responding to self protein/tissues and thus initiate autoimmunity early in life. The MRL/lpr model mice develop several chronic inflammatory disease-like symptoms that are characteristic of early and late lupus including the generation of anti-nuclear antibodies, arthritis, dermatological manifestations, immunocomplex-mediated glomerulonephritis leading to proteinuria and eventual death. Lesser characterized phenomenon are CNS and cardiac manifestations, both of which are more common in humans. […] Mortality is higher in the females and occurs around 25 weeks of age, renal disease includes glomerulonephritis, glomerular infiltrates, sclerosis and vasculitis. Both splenomegaly and lymphomegaly associated with dermatitis can also be observed. […] Mice were tracked on an individual basis.

With `CN1CCN(c2cccc(Nc3nc4c(-c5ccc(S(C)(=O)=O)cc5)cccn4n3)c2)CC1` [COMPOUND A, [8-(4-methanesulfonyl-phenyl)-[1,2,4]triazolo[1,5-a]pyridin-2-yl]-[3-(4-methyl-piperazin-1-yl)-phenyl]-amine] the “serum CCL3/MIP-1α decrease compared to vehicle” value ([1]; 55 mg/kg) was 94.5%, the “serum CCL3/MIP-1α decrease compared to vehicle” value ([1]; 100 mg/kg) was 94.5% and the “serum C3 increase over vehicle” value ([2]; 55 mg/kg p.o. b.i.d.) was 51.4%. The “serum C3 increase over vehicle” value ([2]; 100 mg/kg p.o. b.i.d.) was 52.5%, the “spleen mass decrease vs. vehicle” value ([3]; 55 mg/kg p.o. b.i.d.) was 49.4% and the “total spleen leukocyte counts compared to vehicle” value ([3]; 55 mg/kg p.o. b.i.d.) was “reduced total leukocyte counts”. For the same compound, the mice without lymphomegaly ([3]; 55 mg/kg p.o. b.i.d.) was 100%, the “spleen mass decrease vs. vehicle” value ([3]; 100 mg/kg p.o. b.i.d.) was 74.1% and the “spleen mass relative to non-lupus control animal (MRL/Mp; 98 mg)” value ([3]; 100 mg/kg p.o. b.i.d.) was “decreased spleen mass to the level of a non-lupus control animal”. For the same compound, the “total spleen leukocyte counts compared to vehicle” value ([3]; 100 mg/kg p.o. b.i.d.) was “reduced total leukocyte counts” and the mice without lymphomegaly ([3]; 100 mg/kg p.o. b.i.d.) was 100%.
